According to patent US11510931B2, “Compositions and methods for treating ophthalmic conditions” (MEDICON PHARMACEUTICALS, INC., priority 2016, dated 2022):

Legend:
[1] = tested on: PGE2; assay: PGE2 levels in tears and cornea of rabbits by ELISA; assay type: in vivo, rabbit
Description: The effects of PS, ketorolac and dicofenac (the latter two ophthalmic NSAIDs known to induce corneal melt) on the tear levels of PGE2 in rabbits with concanavalin A-induced dry eye were compared. Three eye drops of PS 1.5% or of commercially available ketorolac 0.5% were given at 0 time, and 1 h later to rabbits with concanavalin A-induced DED. Tears were obtained at 2 h and the levels of PGE2 were determined by ELISA. PGE2 in tears of naïve rabbits (not exposed to concanavalin A nor treated) was also measured. The PGE2 levels (mean±SEM) were: Naïve, 110.4±12.6 ng/ml; PS-treated, 115.4±15.8 ng/ml; Ketorolac-treated, 77.7±8.7 ng/ml. The difference in PS vs. ketorolac was significant, p<0.02; as was the difference in ketorolac vs naïve, p<0.03. Regarding this parameter, PS differs radically form ketorolac, which induces corneal melt.
Levels of PGE2 in the corneas of three groups of rabbits were determined by ELISA. Rabbits were treated with PS 1.6% or ketorolac 0.5% eye drops topically applied to their eyes or were not treated (naïve group). Results in pg/mg protein (mean±SEM). Naïve=787.3±96.3; PS=880.6±110.3; Ketrolorac=247.2±187.4 (p<0.01 vs PS).
Rabbits with DED induced by concanavalin A as above were treated for 6 days with vehicle, or PS 2.3% or ketorolac 0.5% or diclofenac 0.1%. Compared to the vehicle group, on day 6 the PGE2 levels in the cornea were 106% of the vehicle value in the PS group (not a statistically significant difference), 1.3% in the ketorolac group (p<0.0001 vs. vehicle, and 2.3% in the diclofenac group (p<0.0001 vs. vehicle).
It was determined that the levels of PGE2 in rabbit tears in three groups of rabbits, naïve and those with Con A-induced DED that were treated for 1 week either with PS or vehicle.
In an acute experiment, administered once topically to the eyes of four groups of rabbits with Con A-induced DED was one of the following: vehicle, PS, ketorolac or diclofenac; the latter two are NSAIDs used for the treatment of ocular inflammation and pain. It was determined that the levels of PGE2 in the cornea of these rabbits obtained 1 h later as well as in the corneas of naïve rabbits.

[2] = biological target: T1, MMP-1 (collagenase I) (Homo sapiens, UniProt P03956); assay: In vitro collagenase activity assay with purified MMP-1; assay type: biochemical; conditions: purified MMP-1 (collagenase I)
T1 sequence (P03956 100-469): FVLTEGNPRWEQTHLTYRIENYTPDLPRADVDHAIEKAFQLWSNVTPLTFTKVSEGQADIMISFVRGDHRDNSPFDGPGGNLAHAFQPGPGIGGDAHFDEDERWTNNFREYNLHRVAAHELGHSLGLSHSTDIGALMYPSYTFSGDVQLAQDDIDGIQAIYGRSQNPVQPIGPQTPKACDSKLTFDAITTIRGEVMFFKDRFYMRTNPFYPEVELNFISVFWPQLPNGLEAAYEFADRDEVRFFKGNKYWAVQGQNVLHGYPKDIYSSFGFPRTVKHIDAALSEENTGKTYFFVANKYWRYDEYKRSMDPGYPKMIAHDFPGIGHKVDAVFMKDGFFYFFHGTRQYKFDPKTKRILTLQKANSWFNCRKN
Description: (§1) In an in vitro assay with purified MMP-1 (collagenase I) as […] it was shown that PS inhibited collagenase activity with an IC50 of <100 nM. In cultured human conjunctiva cells, PS suppressed MMP-1 by 75%-86%. In the lacrimal glands of rabbits with DED treated with PS eye drops, PS suppressed MMP-9 levels by 27% compared to vehicle treated rabbits (2.20±0.24 vs. 1.66±0.20 ng/mg protein; p<0.05; mean±SEM).

[3] = tested on: MMP-1; assay: MMP-1 levels in cultured human conjunctival cells (ELISA); assay type: cell-based; conditions: for reduction of MMP-1 secreted into the culture medium: compared to controls; for levels of MMP-1 secreted into the culture medium: mean±SEM
Description: as §1
The Mechanism of Action of PS in Dry Eye. Tissue culture, animal and human studies have established inflammation as the core mechanism of DED^8. To determine the mechanism of action of PS in DED the response to PS of several factors known to play an important role in the inflammation associated with DED was explored. They include NF-κB; the cytokines TGF-β, IL-1 β, IL-6 and IL-8; the collagenases MMP-1 and MMP-9; and PGE2. In these studies we used human conjunctival epithelial cells, the Wong-Kilbourne derivative of Chang conjunctival cells (clone 1 to 5c-41 American Type Culture Collection (Manassas, Va.) certified cell line, 20.2).

[4] = tested on: IL-8; assay: IL-8 in culture medium of human conjunctival cells (ELISA); assay type: cell-based
Description: Culture media were harvested 24 h later and the levels of TGF-β, IL-6 and IL-8 were determined by ELISA. Of note, the levels of IL-1β were below the limit of detection.

[5] = Biodistribution of PS in human eyes (ex vivo); assay type: in vitro ADME; conditions: human eye ex vivo, 10 min contact, 60 min incubation
Description: Biodistribution of PS in human eyes (ex vivo): Human cadaveric eyes were obtained through the Lions Eye Bank for Long Island, Valley Stream, NY. They were preserved on ice and used within 2 h from removal from the donors.
The anterior surface of the human eye (corresponding to an area slightly larger than the palpebral fissure) was brought into direct contact with a PS HP-β-CD solution (PS concentration at 0.5%, 2.0% and 3.3%) and incubated for 10 min at 37° C. The eye was then rinsed with 10% dimethylsulfoxide (DMSO) to remove residual PS from the surface of the eye and incubated in PBS for 60 min. […] At the specified times, ocular tissues were dissected and PS levels determined by HPLC. The Table below summarizes the findings.

## CCOP(=O)(OCC)OCCCCOC(=O)CC1=C(C)/C(=C/c2ccc([S+](C)[O-])cc2)c2ccc(F)cc21 (stereo not shown) [PS, phosphosulindac]
[1]; Con A DED rabbits treated for 1 week, FIG. 9A
  PGE2 levels in tears: slightly lower than (but not significantly different from) those of naïve rabbits
[1]; Con A DED rabbits, administered once topically, 1 h later, FIG. 9B
  PGE2 levels in the cornea: no different than those of vehicle-treated and naïve rabbits
[1]; Con A DED rabbits, day 6, PS 2.3%, ketorolac 0.5%, diclofenac 0.1%
  PGE2 levels in the cornea, % of the vehicle value: 106%
[1]; Con A DED rabbits, three eye drops at 0 and 1 h, tears at 2 h, PS 1.5%, ketorolac 0.5%, mean±SEM
  PGE2 levels in tears: 115.4 ± 15.8 ng/mL
[1]; rabbits, PS 1.6% or ketorolac 0.5% eye drops, mean±SEM
  PGE2 levels in the corneas: 880.6±110.3 pg/mg protein
[2]
  IC50: < 100 nM
[3]; PS 1×IC50, 2 h
  reduction of MMP-1 secreted into the culture medium: 48%
  levels of MMP-1 secreted into the culture medium: 24.9±0.8
[3]; PS 1.5×IC50, 2 h
  reduction of MMP-1 secreted into the culture medium: 55%
  levels of MMP-1 secreted into the culture medium: 21.6±0.8
[3]; cultured human conjunctiva cells
  MMP-1 suppression: 75%-86%
[4]; TNF-α-stimulated, PS 1×IC50, media at 24 h
  IL-8 reduction: 92%
[4]; unstimulated levels, PS 1×IC50
  IL-8 reduction: 62%
[5]; 0.5% PS HP-β-CD solution
  PS in Aqueous: 2.4 µM
  PS in Choroid: 28.5 µM
  PS in Cornea: 187.2 µM
  PS in Iris: 25.6 µM
  PS in Lens: 0.6 µM
  PS in Retina: 2.9 µM
  PS in Sclera: 381.3 µM
  PS in Vitreous: 0.3 µM
[5]; 2.0% PS HP-β-CD solution
  PS in Cornea: 397.7 µM
  PS in Iris: 34.2 µM
  PS in Lens: 1.4 µM
  PS in Retina: 38.7 µM
  PS in Sclera: 870.9 µM
[5]; 3.3% PS HP-β-CD solution
  PS in Aqueous: 19.5 µM
  PS in Choroid: 261.4 µM
  PS in Cornea: 266.4 µM
  PS in Iris: 169.3 µM
  PS in Lens: 1.9 µM
  PS in Retina: 48.5 µM
  PS in Sclera: 2,596.6 μM
  PS in Vitreous: 4.3 µM
